Assays:
Assay type in all cases: in vivo
[1] = test system: green foxtail (Setaria viridis, SETVI); experiment: Pre-emerge test, greenhouse herbicide activity screening; settings: pre-emerge, 14 days after application, rating scale 0-100
How it was run: (§1)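 Compounds in acetone were track-sprayed at 187 l/ha, 15–1000 g ai/ha, onto sandy loam pots. Pre-emerge seeds were sown one day before spraying, with surface watering afterwards. Post-emerge plants were at the 2–3 leaf stage and sprayed with 0.25% v/v non-ionic surfactant. Injury was rated 0–100 at 14 days.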

[2] = test system: lambsquarters (Chenopodium album, CHEAL); experiment: as above; settings: pre-emerge, 14 days after application, rating scale 0-100
How it was run: as §1

[3] = test system: johnsongrass (Sorghum halepense, SORHA); experiment: as above; settings: pre-emerge, 14 days after application, rating scale 0-100
How it was run: as §1

[4] = test system: cocklebur (Xanthium strumarium, XANST); experiment: as above; settings: 14 days after application, rating scale 0-100
[5] = test system: velvetleaf (Abutilon theophrasti, ABUTH); experiment: as above; settings: pre-emerge, 14 days after application, rating scale 0-100
How it was run: as §1

[6] = test system: large crabgrass (Digitaria sanguinalis, DIGSA); experiment: as above; settings: pre-emerge, 14 days after application, rating scale 0-100
How it was run: as §1

[7] = test system: barnyardgrass (Echinochloa crus-galli, ECHCG); experiment: as above; settings: pre-emerge, 14 days after application, rating scale 0-100
How it was run: as §1

[8] = test system: sicklepod (Cassia obtusifolia, CASOB); experiment: as above; settings: pre-emerge, 14 days after application, rating scale 0-100
How it was run: as §1

[9] = test system: ivyleaf morningglory (Ipomoea hederacea, IPOHE); experiment: as above; settings: pre-emerge, 14 days after application, rating scale 0-100
How it was run: as §1

[10] = test system: field corn (Zea mays L., var. Dekalb 535, CORN); experiment: Pre-emerge test, crop safety; settings: pre-emerge, 14 days after application, rating scale 0-100
How it was run: (§2)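 Herbicidal damage is scored 0 (none) to 100 (complete plant death) two weeks after a simulated field spray. Rates span 15–1000 g ai/ha, delivered in acetone at 187 l/ha. For post-emergence treatments, plants have 2–3 leaves and the spray carries 0.25% v/v non-ionic surfactant.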

[11] = test system: upland rice (Oryza sp., var. Tebonnet, RICE); experiment: Pre-emerge test, crop safety; settings: pre-emerge, 14 days after application, rating scale 0-100
How it was run: as §2

[12] = test system: redroot pigweed (Amaranthus retroflexus, AMARE); experiment: Pre-emerge test, greenhouse herbicide activity screening; settings: pre-emerge, 14 days after application, rating scale 0-100
How it was run: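 Compounds in acetone were track-sprayed at 15-1000 g ai/ha (187 l/ha) on sandy loam pots: pre-emerge one day after seeding, post-emerge at 2-3 leaf stage with 0.25% v/v non-ionic surfactant. Phytotoxicity was rated 14 days later on a 0 (no damage) to 100 (complete death) scale.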

## O=c1cc(C(F)(F)F)[nH]c(=O)n1-c1c(Cl)cc(C(F)(F)F)cc1Cl [compound 2, reference compound]
[1]; 3.9 g ai/ha
  phytotoxicity rating SETVI: 0
[1]; 7.8 g ai/ha
  phytotoxicity rating SETVI: 0
[1]; 15.6 g ai/ha
  phytotoxicity rating SETVI: 0
[1]; 31.3 g ai/ha
  phytotoxicity rating SETVI: 0
[1]; 62.5 g ai/ha
  phytotoxicity rating SETVI: 0
[1]; 125 g ai/ha
  phytotoxicity rating SETVI: 0
[1]; 250 g ai/ha
  phytotoxicity rating SETVI: 0
[2]; 3.9 g ai/ha
  phytotoxicity rating CHEAL: 0
[2]; 7.8 g ai/ha
  phytotoxicity rating CHEAL: 0
[2]; 15.6 g ai/ha
  phytotoxicity rating CHEAL: 0
[2]; 31.3 g ai/ha
  phytotoxicity rating CHEAL: 0
[2]; 62.5 g ai/ha
  phytotoxicity rating CHEAL: 0
[2]; 125 g ai/ha
  phytotoxicity rating CHEAL: 30
[2]; 250 g ai/ha
  phytotoxicity rating CHEAL: 50
[3]; 3.9 g ai/ha
  phytotoxicity rating SORHA: 0
[3]; 7.8 g ai/ha
  phytotoxicity rating SORHA: 0
[3]; 15.6 g ai/ha
  phytotoxicity rating SORHA: 0
[3]; 31.3 g ai/ha
  phytotoxicity rating SORHA: 0
[3]; 62.5 g ai/ha
  phytotoxicity rating SORHA: 0
[3]; 125 g ai/ha
  phytotoxicity rating SORHA: 0
[3]; 250 g ai/ha
  phytotoxicity rating SORHA: 0
[4]; 3.9 g ai/ha
  phytotoxicity rating XANST: 0
[4]; 7.8 g ai/ha
  phytotoxicity rating XANST: 0
[4]; 15.6 g ai/ha
  phytotoxicity rating XANST: 0
[4]; 31.3 g ai/ha
  phytotoxicity rating XANST: 0
[4]; 62.5 g ai/ha
  phytotoxicity rating XANST: 0
[4]; 125 g ai/ha
  phytotoxicity rating XANST: 0
[4]; 250 g ai/ha
  phytotoxicity rating XANST: 60
[5]; 3.9 g ai/ha
  phytotoxicity rating ABUTH: 0
[5]; 7.8 g ai/ha
  phytotoxicity rating ABUTH: 0
[5]; 15.6 g ai/ha
  phytotoxicity rating ABUTH: 0
[5]; 31.3 g ai/ha
  phytotoxicity rating ABUTH: 0
[5]; 62.5 g ai/ha
  phytotoxicity rating ABUTH: 0
[5]; 125 g ai/ha
  phytotoxicity rating ABUTH: 0
[5]; 250 g ai/ha
  phytotoxicity rating ABUTH: 50
[6]; 3.9 g ai/ha
  phytotoxicity rating DIGSA: 0
[6]; 7.8 g ai/ha
  phytotoxicity rating DIGSA: 0
[6]; 15.6 g ai/ha
  phytotoxicity rating DIGSA: 0
[6]; 31.3 g ai/ha
  phytotoxicity rating DIGSA: 0
[6]; 62.5 g ai/ha
  phytotoxicity rating DIGSA: 0
[6]; 125 g ai/ha
  phytotoxicity rating DIGSA: 0
[6]; 250 g ai/ha
  phytotoxicity rating DIGSA: 0
[7]; 3.9 g ai/ha
  phytotoxicity rating ECHCG: 0
[7]; 7.8 g ai/ha
  phytotoxicity rating ECHCG: 0
[7]; 15.6 g ai/ha
  phytotoxicity rating ECHCG: 0
[7]; 31.3 g ai/ha
  phytotoxicity rating ECHCG: 0
[7]; 62.5 g ai/ha
  phytotoxicity rating ECHCG: 0
[7]; 125 g ai/ha
  phytotoxicity rating ECHCG: 0
[7]; 250 g ai/ha
  phytotoxicity rating ECHCG: 0
[8]; 3.9 g ai/ha
  phytotoxicity rating CASOB: 0
[8]; 7.8 g ai/ha
  phytotoxicity rating CASOB: 0
[8]; 15.6 g ai/ha
  phytotoxicity rating CASOB: 0
[8]; 31.3 g ai/ha
  phytotoxicity rating CASOB: 0
[8]; 62.5 g ai/ha
  phytotoxicity rating CASOB: 0
[8]; 125 g ai/ha
  phytotoxicity rating CASOB: 30
[8]; 250 g ai/ha
  phytotoxicity rating CASOB: 50
[9]; 3.9 g ai/ha
  phytotoxicity rating IPOHE: 0
[9]; 7.8 g ai/ha
  phytotoxicity rating IPOHE: 0
[9]; 15.6 g ai/ha
  phytotoxicity rating IPOHE: 0
[9]; 31.3 g ai/ha
  phytotoxicity rating IPOHE: 0
[9]; 62.5 g ai/ha
  phytotoxicity rating IPOHE: 0
[9]; 125 g ai/ha
  phytotoxicity rating IPOHE: 0
[9]; 250 g ai/ha
  phytotoxicity rating IPOHE: 0
[10]; 3.9 g ai/ha
  phytotoxicity rating MAIZE: 0
[10]; 7.8 g ai/ha
  phytotoxicity rating MAIZE: 0
[10]; 15.6 g ai/ha
  phytotoxicity rating MAIZE: 0
[10]; 31.3 g ai/ha
  phytotoxicity rating MAIZE: 0
[10]; 62.5 g ai/ha
  phytotoxicity rating MAIZE: 0
[10]; 125 g ai/ha
  phytotoxicity rating MAIZE: 0
[10]; 250 g ai/ha
  phytotoxicity rating MAIZE: 0
[11]; 3.9 g ai/ha
  phytotoxicity rating RICE: 0
[11]; 7.8 g ai/ha
  phytotoxicity rating RICE: 0
[11]; 15.6 g ai/ha
  phytotoxicity rating RICE: 0
[11]; 31.3 g ai/ha
  phytotoxicity rating RICE: 0
[11]; 62.5 g ai/ha
  phytotoxicity rating RICE: 0
[11]; 125 g ai/ha
  phytotoxicity rating RICE: 0
[11]; 250 g ai/ha
  phytotoxicity rating RICE: 15
[12]; 3.9 g ai/ha
  phytotoxicity rating AMARE: 0
[12]; 7.8 g ai/ha
  phytotoxicity rating AMARE: 0
[12]; 15.6 g ai/ha
  phytotoxicity rating AMARE: 0
[12]; 31.3 g ai/ha
  phytotoxicity rating AMARE: 0
[12]; 62.5 g ai/ha
  phytotoxicity rating AMARE: 0
[12]; 125 g ai/ha
  phytotoxicity rating AMARE: 0
[12]; 250 g ai/ha
  phytotoxicity rating AMARE: 0

— patent US6355799B1, “Substituted benzene compounds, process for their preparation, and herbicidal and defoliant compositions containing them” (ISK Americas Incorporated, priority 1997, dated 2002)
